Consider 1 compound from article PMC11568336, “Biochemical properties of immobilized horseradish peroxidase on ceramic and its application in removal of azo dye” (Scientific Reports, 2024).

The subject of the experiment is T1, Horseradish peroxidase (HRP), soluble HRP.
T1 construct: gene PRXC1A; free (soluble) enzyme
As to the kind of experiment: absorbance at […] nm, Lineweaver-Burk plot. As to conditions: soluble (free) enzyme; co-substrate H2O2 (8 mM in standard assay); 20 mM sodium acetate pH 6.0. The format is biochemical, Armoracia rusticana.

Each structure is given as a SMILES string.

Usually Km stands for the concentration of substrate that gives half-maximal velocity. For the compound `COc1ccccc1O` [guaiacol], the Km stood at 35.5 mM.
